The test system of test [1] is B16F10 syngeneic model. Nature of the test: B16F10 syngeneic model. Type of test: in vivo. The conditions noted are these: C57BL/6J mice, HDAC inhibitors by oral gavage, anti-PD-L1 intraperitoneal, 7-day treatment. How it is done:
With the approval of the ethics committee of Shandong University, C57BL/6J mice were purchased from Charles River and fed in SPF conditions at the Model Animal Research Centre of Shandong University. To establish the B16F10 syngeneic model, cells in logarithmic growth phase were trypsinized with 0.25% trypsin, resuspended in sterile PBS, and adjusted to 1 × 10^6 cells/100 µL. The cell suspension (100 µL) was subcutaneously injected into the left axilla. When tumors reached to certain volume, mice were randomized (n = 5/group) and treated with Chidamide, LBH‐589, or SDFZ‐8 by oral gavage and intraperitoneal injection of anti‐PD‐L1. Tumor growth curves were plotted over a 7‐day treatment cycle. All procedures complied with AAALAC International guidelines for humane endpoint criteria.

Test [2] deals with HDAC3/NCOR1 complex. The test can be described thus: HDACs enzymatic assay HDAC3. Type of test: biochemical. The conditions noted are these: Class I; mean ± SD of three. How it is done: HDACs enzymatic assays were conducted according to our previous work. […] Substrates (Boc‐Lys(acetyl)‐AMC for HeLa nuclear extract, Ac‐Leu‐Gly‐Lys (Tfa)‐AMC for HDAC4, HDAC5, HDAC6, HDAC7, HDAC9, HDAC10, and HDAC11, Boc‐Lys(triflouroacetyl)‐AMC for HDAC8 and Ac‐Leu‐Gly‐Lys(acetyl)‐AMC for HDAC1, HDAC2, HDAC3) were added to the mixture. The blank group was set to no enzyme or drug but contains substrates and the control group was set to no drug but contains substrates and enzymes to each 96‐well plate. After 30 min of incubation at 37°C, the mixture was terminated with 1 mg/mL trypsin and 3 µM TSA. After another 30 min, the fluorescence intensity was measured using a Varioskan plate reader at 360/460 nm. […] The inhibition curves and IC50 values were simulated and calculated using the log(inhibitor) versus response (three parameters) mode in GraphPad Prism software.

Test [3] concerns MDA-MB-231 xenograft. The test can be described thus: MDA-MB-231 xenograft model. The test is classed as in vivo, BALB/c-nu mice. The conditions noted are these: MDA-MB-231 xenograft, BALB/c-nu mice, 60 mg/kg/day oral gavage, 22 days. How it is done: BALB/c‐nu mice were obtained from Pengyue Co. Ltd. (Jinan, China) and were fed in laminar flow cabinets under specific pathogen‐free (SPF) conditions. With the approval of ethics committee of Shandong University, the animal experiments were conducted. To establish the MDA‐MB‐231 xenograft model, BALB/c‐nu mice (3–4 weeks old and 15–18 g body weight, male) were selected and injected subcutaneously into the armpits with 1.2 × 10^7 MDA‐MB‐231 cells. […] Body weight and tumor size were measured every 3 days during the 22‐day treatment.

Test [4] relates to MC38 syngeneic model. The test can be described thus: MC38 syngeneic model. Type of test: in vivo. The conditions noted are these: C57BL/6J mice, SDFZ-8 60 mg/kg qd i.g., 14-day treatment. How it is done: C57BL/6J mice were obtained from HFK Bioscience (Beijing, China) and fed in laminar flow cabinets under SPF conditions. With the approval of the ethics committee of Shandong University, the animal experiments were conducted. […]. By the time tumors reached certain volumes, SDFZ‐8 treatment (SDFZ‐8 in PBS solution containing 5% DMSO, 60 mg/kg, qd, i.g.) was started, with five animals per treatment group. Body weight and tumor size were measured every day during the 14‐day treatment.

For test [5], the system named is MDA-MB-231 cells. Nature of the test: Western blotting (immunoblotting). The test is classed as cell-based, human. The conditions noted are these: 24 h, western blotting. An excerpt:
Anti‐H3 (#13998), anticleaved Caspase‐3 (#9661) and anti‐PARP (#9542) antibody was purchased from Cell Signal Technology (CST). Anti‐Caspase‐3 (T40044) was brought from Abmart. Antitubulin antibody (ab179484) was obtained from Abcam PLC. Anti‐Bcl‐2 (F0125) and anti‐Bax (F0037) antibody were purchased from Selleck Chemicals. Anti‐GAPDH antibody (AF1186) was obtained from Beyotime Inc. The protocol of Western blotting was the same as our previous works. In brief, 2.5 × 10^5 MDA‐MB‐231 cells were treated with different drugs or DMSO (equal volume to experimental groups) for 24 h and lysed with modified RIPA buffer. The cell lysates were added to loading buffer (Beyotime #P0015L) and heated in boiling water for 5 mins and then, together with biomarker (Epizymebiotech; 15–250 kDa), were electrophoresed in SDS‐PAGE gels under 80 V voltage until the biomarker reached the end of gels. Next, SDS‐PAGE gels and PVDF membrane were clipped together to perform transmembrane procedure under 350 mA currency for 1 h. Then after incubation with 5% skim milk, TBST, primary antibody and secondary antibody, the PVDF membrane was treated with ECL chemiluminescence solution (Boster Biological Technology #AR1174) and imaged by the imager (Imager 680 Amersham Imager).
In general terms: Immunoblotting shows a protein as a band on a membrane.

Test [6] deals with immune cells of MC38 syngeneic model. Nature of the test: Flow cytometry of tumor-infiltrating and spleen immune cells, MC38 model. Type of test: in vivo, C57BL/6J mice. How it is done:
After 14 days, the tumors and spleens were split, and cells were isolated to analyze the change in cancer immunity. For TILs, the tumors were incubated with the tumor digestion fluid (collagenase and hyaluronic acid included) and then filtered with a 200‐gauge mesh and centrifuged (100×g, 1 min). The supernatant was centrifuged (400×g, 5 min) and precipitated cells were purified by 40% percoll solution followed by RBC lysis and washing. For splenocytes, the spleen was passed through a 200‐gauge mesh, and splenocytes were collected after RBC lysis and washing.
The prepared cell suspensions were incubated with rat serum at room temperature for 30 min to block the FC‐receptor and incubated with fluorescent antibodies at 4°C for 1 h. For Foxp3 staining, Foxp3/Transcription Factor Staining Buffer Set (eBioscience; #00‐5523‐00) was used. For intracellular cytokines staining, cells were pre‐stimulated with 1 µg/mL ionomycin (Beyotime; #S1672), 50 ng/mL PMA (Sigma; #P1585) and Brefeldin A (BioLegend; #420601) for 4 h. Flow cytometry was conducted with FACS Celesta (BD Biosciences, USA) and analyzed with FlowJo software.
For orientation: Flow cytometry measures light scatter and fluorescence of single cells or particles in a stream.

As a reminder, the IC50 is the point on the concentration scale where inhibition reaches its midpoint.

Turning to atezolizumab [anti-PD-L1], the TGI in test [1] worked out at 62%.

In test [2], `O=C(CCCCCCC(=O)Nc1ccccc1)NO` [SAHA, Vorinostat, reference compound] had a concentration for half-maximal inhibition (IC50) of 45 ± 20 nM. In test [3], the TGI is listed as 60%. This compound showed a TGI in test [4] of 50%. Also, in test [5], the “level of acetylated histone H3 (Ac-H3)” value is given as “upregulation” and the “level of acetylated tubulin (Ac-tubulin)” value was “upregulation”. For the same compound, in test [6], the “PD-L1 and PD-1 expression in tumor-infiltrating immune cells” value is “upregulated”; the “surface expression of MHC class II in DCs and macrophages” value is on record as “only impacted MHC II in DCs”. In test [6] (CD206 marker), the “M2 polarization of TAMs” value is recorded as “suppressed”. Further, the “M1 polarization of TAMs” value in test [6] (iNOS marker) is “robustly promoted”. Besides, in test [6] (spleen), the “PD-1 expression in spleen CD4+ T cells and NK cells” value is “downregulated”; the “PD-L1 expression in spleen DCs and macrophages” value is “upregulated”; the “proportion of CD4+ T cells, CD8+ T cells and NK cells in the spleen” value is on record as “did not induce such effects”. In test [6] (tumor), the “expression of IFN-γ and TNF-α in CD4+ T cells and CD8+ T cells” value is listed as “upregulation”.

On to `Cc1[nH]c2ccccc2c1CCNCc1ccc(/C=C/C(=O)NO)cc1` [LBH-589, reference compound], for which, in test [1], the TGI came out at 53%.

In turn, `Nc1cc(F)ccc1NC(=O)c1ccc(CNC(=O)/C=C/c2cccnc2)cc1` [Chidamide, reference compound] returned a TGI in test [1] of 58%.

The values are drawn from article PMC12627232 (MedComm, 2025).
